Experimental data as given in ChEMBL document CHEMBL5214923, “Contemporary mTOR inhibitor scaffolds to diseases breakdown: A patent review (2015-2021)” (Eur J Med Chem, 2022).
Values belong to the compound of their own block, whether it stands above or below them.

Legend:
[1] = molecular target: T1, Phosphatidylinositol 4,5-bisphosphate 3-kinase catalytic subunit delta isoform (Homo sapiens, UniProt O00329); assay: Inhibition of human PI3Kdelta preincubated for 15 mins followed by ATP addition measured after 1 hr by TR-FRET assay
T1 sequence (O00329 whole entry): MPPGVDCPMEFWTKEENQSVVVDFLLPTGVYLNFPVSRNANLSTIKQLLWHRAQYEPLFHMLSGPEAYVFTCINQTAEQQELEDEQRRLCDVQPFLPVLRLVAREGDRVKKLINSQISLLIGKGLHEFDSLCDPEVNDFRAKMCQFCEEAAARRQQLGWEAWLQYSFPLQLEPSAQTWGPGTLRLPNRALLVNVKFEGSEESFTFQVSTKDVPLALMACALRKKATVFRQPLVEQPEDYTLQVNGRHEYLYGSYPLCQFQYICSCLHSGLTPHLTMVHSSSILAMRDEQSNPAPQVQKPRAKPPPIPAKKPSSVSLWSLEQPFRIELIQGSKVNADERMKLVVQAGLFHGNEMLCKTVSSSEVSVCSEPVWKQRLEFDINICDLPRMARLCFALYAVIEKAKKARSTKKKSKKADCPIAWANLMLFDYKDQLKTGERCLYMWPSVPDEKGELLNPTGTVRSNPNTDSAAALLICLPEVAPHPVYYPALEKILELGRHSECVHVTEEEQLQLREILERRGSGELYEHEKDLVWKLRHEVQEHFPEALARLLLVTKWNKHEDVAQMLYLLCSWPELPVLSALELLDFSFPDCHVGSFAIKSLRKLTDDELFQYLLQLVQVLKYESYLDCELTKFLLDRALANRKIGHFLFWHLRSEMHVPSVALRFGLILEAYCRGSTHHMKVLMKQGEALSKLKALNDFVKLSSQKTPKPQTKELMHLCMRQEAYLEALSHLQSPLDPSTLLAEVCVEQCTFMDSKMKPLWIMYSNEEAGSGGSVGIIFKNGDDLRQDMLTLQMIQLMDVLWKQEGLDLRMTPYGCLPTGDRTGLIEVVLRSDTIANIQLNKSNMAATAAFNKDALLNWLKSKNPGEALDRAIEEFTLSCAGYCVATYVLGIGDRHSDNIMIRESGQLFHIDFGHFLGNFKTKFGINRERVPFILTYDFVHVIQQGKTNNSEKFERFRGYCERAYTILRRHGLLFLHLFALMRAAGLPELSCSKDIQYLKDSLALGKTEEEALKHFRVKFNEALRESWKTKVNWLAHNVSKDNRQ

mTORC1 [2] = molecular target: T2, mTORC1 (Homo sapiens, UniProt P42345+Q8N122+Q9BVC4); assay: Inhibition of mTORC1 (unknown origin); format: protein-complex assay
[3] = molecular target: Phosphatidylinositol 4,5-bisphosphate 3-kinase catalytic subunit gamma isoform (Homo sapiens, UniProt P48736); assay: Inhibition of human PI3Kgamma preincubated for 15 mins followed by ATP addition measured after 1 hr by TR-FRET assay
mTORC1 [4] = molecular target: T2, mTORC1; assay: Inhibition of mTORC1 (unknown origin) assessed as measuring phosphorylated p7OS6K level at 0.2 uM relative to control; format: protein-complex assay
mTORC1 [5] = molecular target: T2, mTORC1; assay: Inhibition of mTORC1 (unknown origin) assessed as measuring phosphorylated 4EBP1 level at 1 uM relative to control; format: protein-complex assay
mTORC2 (Homo sapiens) = mTORC2 (Homo sapiens) (UniProt P42345+Q6R327+Q9BVC4+Q9BPZ7); assay: Inhibition of mTORC2 (unknown origin) assessed as measuring phosphorylated AKT at 0.5 uM relative to control; format: protein-complex assay
[6] = molecular target: Serine/threonine-protein kinase mTOR (Homo sapiens, UniProt P42345); assay: Inhibition of human mTOR assessed as measuring phosphorylated p70S6K level by TR-FRET assay
[7] = molecular target: PI3-kinase p110-alpha/p85-alpha (Homo sapiens, UniProt P42336); assay: Inhibition of PI3K p110alpha/p85alpha (unknown origin) using PIP2 as substrate preincubated for 15 mins followed by substrate addition measured after 1 hr in presence of ATP by TR-FRET assay; format: protein-complex assay
[8] = molecular target: Peptidyl-prolyl cis-trans isomerase FKBP1A (Homo sapiens, UniProt P62942); assay: Binding affinity to FKBP12 (unknown origin) assessed as inhibition constant
mTORC1 [9] = molecular target: T2, mTORC1; assay: Inhibition of mTORC1 in human MDA-MB-468 cells assessed as measuring phosphorylated P70S6K incubated for 2 to 4 hrs by AlphaLISA assay; format: cell-based
mTORC1 [10] = molecular target: T2, mTORC1; assay: Inhibition of mTORC1 in human MDA-MB-468 cells assessed as measuring phosphorylated 4EBP1 incubated for 2 to 4 hrs by AlphaLISA assay; format: cell-based
mTORC2 [11] = molecular target: T3, mTORC2 (Homo sapiens, UniProt P42345+Q6R327+Q9BPZ7+Q9BVC4); assay: Inhibition of mTORC2 in human MDA-MB-468 cells assessed as measuring phosphorylated AKT incubated for 2 to 4 hrs by AlphaLISA assay; format: cell-based
mTORC1 [12] = molecular target: T2, mTORC1; assay: Inhibition of mTORC1 in human PC-3 cells assessed as measuring phosphorylated S6K level incubated for 24 hrs by AlphaLISA assay; format: cell-based
mTORC2 [13] = molecular target: T3, mTORC2; assay: Inhibition of mTORC2 in human PC-3 cells assessed as measuring phosphorylated Akt level incubated for 24 hrs by AlphaLISA assay; format: cell-based

Sequence of Peptidyl-prolyl cis-trans isomerase FKBP1A (P62942 whole entry): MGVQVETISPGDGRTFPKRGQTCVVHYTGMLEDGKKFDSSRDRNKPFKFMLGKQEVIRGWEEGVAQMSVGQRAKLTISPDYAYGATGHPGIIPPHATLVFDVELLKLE
Sequence of PI3-kinase p110-alpha/p85-alpha (P27986 whole entry): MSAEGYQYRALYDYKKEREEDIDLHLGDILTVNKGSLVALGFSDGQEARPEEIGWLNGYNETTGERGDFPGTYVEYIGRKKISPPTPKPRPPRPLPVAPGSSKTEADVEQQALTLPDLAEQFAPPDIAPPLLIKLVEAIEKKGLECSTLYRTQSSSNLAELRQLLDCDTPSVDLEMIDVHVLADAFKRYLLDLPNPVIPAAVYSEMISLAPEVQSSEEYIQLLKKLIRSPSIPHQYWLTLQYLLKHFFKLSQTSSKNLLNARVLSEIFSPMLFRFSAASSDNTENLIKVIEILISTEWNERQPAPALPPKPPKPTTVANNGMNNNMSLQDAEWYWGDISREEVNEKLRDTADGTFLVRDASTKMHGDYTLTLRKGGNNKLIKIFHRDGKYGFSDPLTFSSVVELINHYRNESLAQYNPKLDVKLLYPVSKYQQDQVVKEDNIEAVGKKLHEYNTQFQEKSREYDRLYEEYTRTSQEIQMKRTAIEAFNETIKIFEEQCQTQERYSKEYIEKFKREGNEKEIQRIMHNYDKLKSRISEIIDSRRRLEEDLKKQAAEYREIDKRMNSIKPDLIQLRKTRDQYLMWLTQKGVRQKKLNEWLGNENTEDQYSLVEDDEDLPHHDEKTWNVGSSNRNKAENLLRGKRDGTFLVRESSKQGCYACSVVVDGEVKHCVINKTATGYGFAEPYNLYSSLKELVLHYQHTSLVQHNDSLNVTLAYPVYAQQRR
Sequence of PI3-kinase p110-alpha/p85-alpha (P42336 whole entry): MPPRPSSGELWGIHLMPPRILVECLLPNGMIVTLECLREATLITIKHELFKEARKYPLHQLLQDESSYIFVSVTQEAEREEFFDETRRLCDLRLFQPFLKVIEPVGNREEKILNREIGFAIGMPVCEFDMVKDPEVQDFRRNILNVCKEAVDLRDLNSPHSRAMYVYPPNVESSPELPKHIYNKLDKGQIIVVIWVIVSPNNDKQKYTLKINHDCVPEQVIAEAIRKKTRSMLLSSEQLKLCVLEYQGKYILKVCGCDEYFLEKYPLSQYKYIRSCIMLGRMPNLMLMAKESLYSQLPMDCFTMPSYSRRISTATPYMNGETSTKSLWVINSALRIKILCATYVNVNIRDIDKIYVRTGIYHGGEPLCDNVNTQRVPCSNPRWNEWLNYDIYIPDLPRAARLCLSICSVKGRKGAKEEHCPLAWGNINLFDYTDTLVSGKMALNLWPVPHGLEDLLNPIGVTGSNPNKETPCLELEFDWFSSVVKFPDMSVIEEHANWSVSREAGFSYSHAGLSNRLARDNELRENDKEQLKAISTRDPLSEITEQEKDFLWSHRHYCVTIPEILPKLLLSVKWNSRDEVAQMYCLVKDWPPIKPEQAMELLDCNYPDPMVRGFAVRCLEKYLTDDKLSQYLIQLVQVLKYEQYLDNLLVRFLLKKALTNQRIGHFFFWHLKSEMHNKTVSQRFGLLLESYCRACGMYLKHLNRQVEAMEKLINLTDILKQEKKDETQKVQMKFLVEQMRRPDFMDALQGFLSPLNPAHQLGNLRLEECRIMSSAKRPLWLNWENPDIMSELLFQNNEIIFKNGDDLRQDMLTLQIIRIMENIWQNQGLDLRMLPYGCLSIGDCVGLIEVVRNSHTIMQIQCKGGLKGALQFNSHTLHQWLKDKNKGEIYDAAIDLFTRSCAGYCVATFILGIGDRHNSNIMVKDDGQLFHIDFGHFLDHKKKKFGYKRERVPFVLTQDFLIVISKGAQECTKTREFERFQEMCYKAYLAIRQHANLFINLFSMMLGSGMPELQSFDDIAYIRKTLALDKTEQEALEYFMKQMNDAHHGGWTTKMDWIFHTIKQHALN
Sequence of Phosphatidylinositol 4,5-bisphosphate 3-kinase catalytic subunit gamma isoform (P48736 whole entry, canonical isoform): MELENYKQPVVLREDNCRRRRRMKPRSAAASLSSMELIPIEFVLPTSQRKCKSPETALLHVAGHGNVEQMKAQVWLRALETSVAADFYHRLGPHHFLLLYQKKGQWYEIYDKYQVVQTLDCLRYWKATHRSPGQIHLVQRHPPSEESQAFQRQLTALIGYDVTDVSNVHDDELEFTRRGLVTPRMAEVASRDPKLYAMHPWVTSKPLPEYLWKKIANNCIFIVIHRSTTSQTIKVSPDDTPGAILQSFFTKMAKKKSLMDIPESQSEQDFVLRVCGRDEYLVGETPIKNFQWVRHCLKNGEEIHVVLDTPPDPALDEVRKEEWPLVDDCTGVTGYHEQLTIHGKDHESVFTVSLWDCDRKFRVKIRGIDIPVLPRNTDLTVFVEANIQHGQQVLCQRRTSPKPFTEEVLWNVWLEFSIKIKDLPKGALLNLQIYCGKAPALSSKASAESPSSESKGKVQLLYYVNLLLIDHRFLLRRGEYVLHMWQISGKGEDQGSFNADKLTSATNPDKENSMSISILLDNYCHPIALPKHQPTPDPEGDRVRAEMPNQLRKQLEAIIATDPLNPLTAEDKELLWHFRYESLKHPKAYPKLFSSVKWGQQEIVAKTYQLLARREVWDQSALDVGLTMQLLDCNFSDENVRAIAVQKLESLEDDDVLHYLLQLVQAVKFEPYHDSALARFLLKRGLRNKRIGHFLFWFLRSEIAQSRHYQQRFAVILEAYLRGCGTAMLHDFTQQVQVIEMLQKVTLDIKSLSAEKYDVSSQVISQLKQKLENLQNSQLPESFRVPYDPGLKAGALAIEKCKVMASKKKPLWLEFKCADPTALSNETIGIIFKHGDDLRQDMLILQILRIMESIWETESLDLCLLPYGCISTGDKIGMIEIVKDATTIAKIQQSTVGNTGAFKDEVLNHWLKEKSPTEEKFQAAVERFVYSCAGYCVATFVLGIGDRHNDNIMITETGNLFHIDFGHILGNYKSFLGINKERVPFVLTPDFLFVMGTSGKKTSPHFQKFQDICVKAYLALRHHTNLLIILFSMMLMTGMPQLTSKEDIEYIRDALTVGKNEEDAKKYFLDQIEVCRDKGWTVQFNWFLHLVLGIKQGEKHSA

SMILES: CC(C)n1nc(-c2cc3cccc(O)c3[nH]2)c2c(N)ncnc21
IC50 [1]: 100 nM | IC50 (mTORC1 [2]): < 5 nM | IC50 [3]: 100 nM

SMILES: CNC(=O)c1cccc(-c2ccc3c(N4CCOC[C@@H]4C)nc(N4CCOC[C@@H]4C)nc3n2)c1
inhibition (mTORC1 [4]): 87.7% | inhibition (mTORC1 [5]): 83.8% | inhibition (mTORC2 (Homo sapiens)): 73.9%

SMILES: COc1ccc(-c2ccc3c(N4CCOC[C@@H]4C)nc(N4CCOC[C@@H]4C)cc3n2)cc1
IC50 [6]: < 100 nM

SMILES: CN(C)C(=O)c1ccc(Oc2nc(-c3cnc4[nH]ccc4c3)nc(N3CCOCC3)n2)c(F)c1
IC50 [7]: < 1000 nM

SMILES: COc1ccc(-c2ccc3c(N4CCOC[C@@H]4C)cc(N4CCOC[C@@H]4C)nc3n2)cc1
IC50 [6]: < 100 nM

SMILES: CNC(=O)c1cccc(-c2ccc3c(N4CCOC[C@@H]4C)nc(N4CCO[C@@H]5CCC[C@@H]54)nc3n2)c1
inhibition (mTORC1 [4]): 89.9% | inhibition (mTORC1 [5]): 62% | inhibition (mTORC2 (Homo sapiens)): 89%

SMILES: COc1ccc(-c2ccc3c(N4CCOC[C@@H]4C)nc(N4CCOC[C@@H]4C)cc3n2)cc1CO
IC50 [6]: < 100 nM

SMILES: C[C@H]1COCCN1c1cc(N2CCOC[C@@H]2C)c2ccc(-c3ccc(CNCCO)cc3)nc2n1
IC50 [6]: < 100 nM

SMILES: CNC(=O)c1cc(-c2ccc3c(N4CCOC[C@@H]4C)nc(N4CCO[C@@H]5CCC[C@@H]54)nc3n2)ccc1F
inhibition (mTORC1 [4]): 77.5% | inhibition (mTORC1 [5]): 60.8%

Other lines, results leading:

Ki [8]: 6.5 nM
SMILES: CO[C@@H]1C[C@@H]2CC[C@@H](C)[C@@](O)(O2)C(=O)C(=O)N2CCCC[C@H]2C(=O)OC([C@H](C)C[C@@H]2CC[C@@H](O)[C@H](OC)C2)CC(O)CC(=O)[C@H](C)/C=C(\C)[C@@H](O)CC(=O)[C@H](C)C[C@H](C)/C=C/C=C/C=C/1C (stereo partly drawn)

IC50 (mTORC1 [9]): ≤ 1 nM | IC50 (mTORC1 [10]): ≤ 3.16 nM | IC50 (mTORC2 [11]): 1000 nM
SMILES: CO[C@H]1C[C@@H]2CC[C@@H](C)[C@@](O)(O2)C(=O)C(=O)N2CCCC[C@H]2C(=O)O[C@H]([C@H](C)C[C@@H]2CC[C@@H](OCCCN3CCOC(C)(C)C3)[C@H](OC)C2)CC[C@H](C)/C=C(\C)[C@@H](O)[C@@H](OC)C(NOCC(=O)NCCOCCOCCOCCOCCOCCOCCC(=O)N2CCc3cc(Cn4nc(-c5ccc6oc(N)nc6c5)c5c(N)ncnc54)ccc3C2)[C@H](C)C[C@H](C)C\C=C/C=C/C=C/1C (stereo partly drawn)

inhibition (mTORC1 [4]): 109% | inhibition (mTORC1 [5]): 77.8%
SMILES: CNC(=O)c1cccc(-c2ccc3c(N4CCOC[C@@H]4C)nc(N4CCO[C@@H]5CCCC[C@@H]54)nc3n2)c1

IC50 (mTORC1 [9]): ≤ 1 nM | IC50 (mTORC1 [10]): ≤ 3.16 nM | IC50 (mTORC2 [11]): > 31.6 nM
SMILES: CO[C@H]1C[C@@H]2CC[C@@H](C)[C@@](O)(O2)C(=O)C(=O)N2CCCC[C@H]2C(=O)O[C@H]([C@H](C)C[C@@H]2CC[C@@H](OCc3cccc(-c4cnc(N5CCN(C(=O)CCc6cn(CCOCCOCCC(=O)NCCCCn7nc(-c8ccc9nc(N)oc9c8)c8c(N)ncnc87)nn6)CC5)nc4)c3)[C@H](OC)C2)CC(=O)[C@H](C)/C=C(\C)[C@@H](O)[C@@H](OC)C(=O)[C@H](C)C[C@H](C)C\C=C/C=C/C=C/1C

Ki [8]: 7.9 nM
SMILES: CO[C@@H]1C[C@@H]2CC[C@@H](C)[C@@](O)(O2)C(=O)C(=O)N2CCCC[C@H]2C(=O)OC([C@H](C)C[C@H]2CC[C@H](O)CC2)C/C=C(\C)[C@@H](O)CC(=O)[C@H](C)C[C@H](C)/C=C/C=C/C=C/1C (stereo partly drawn)

IC50 (mTORC1 [12]): < 0.316 nM | IC50 (mTORC2 [13]): > 10000 nM
SMILES: CO[C@@H]1C[C@H](C[C@@H](C)[C@@H]2CC(=O)[C@H](C)/C=C(\C)[C@@H](O)[C@@H](OC)C(=O)[C@H](C)C[C@H](C)/C=C/C=C/C=C(\C)C(OCCO)C[C@@H]3CC[C@@H](C)[C@@](O)(O3)C(=O)C(=O)N3CCCC[C@H]3C(=O)O2)CC[C@H]1OCCCN1CCOC[C@@H]1C (stereo partly drawn)
